Results published in ChEMBL document CHEMBL5352429, “Designed symmetrical β-hairpin peptides for treating multidrug-resistant salmonella typhimurium infections” (Eur J Med Chem, 2022).
Converted amounts (≈) assume the structure as drawn. The source made the active and inactive calls. No cut-off for these calls is given here. Peptide text beside a SMILES is read from it.

Legend:
Staphylococcus aureus [1] = assay: Antibacterial activity against Staphylococcus aureus ATCC 29213 incubated overnight by standard microtiter dilution method; assay type: functional
Staphylococcus aureus [2] = assay: Antibacterial activity against methicillin-resistant Staphylococcus aureus ATCC 43300 incubated overnight by standard microtiter dilution method; assay type: functional
[3] = system: Staphylococcus epidermidis; assay: Antibacterial activity against methicillin-resistant Staphylococcus epidermidis ATCC 12228 incubated overnight by standard microtiter dilution method; assay type: functional
Enterococcus faecalis = assay: Antibacterial activity against Enterococcus faecalis ATCC 29212 incubated overnight by standard microtiter dilution method; assay type: functional
Escherichia coli = assay: Antibacterial activity against Escherichia coli O157:H7 CICC 21530 incubated overnight by standard microtiter dilution method; assay type: functional
Salmonella paratyphi = assay: Antibacterial activity against Salmonella paratyphi A CICC 21501 incubated overnight by standard microtiter dilution method; assay type: functional, Salmonella enterica subsp. enterica serovar Paratyphi A; details: Salmonella enterica
[4] = system: Salmonella enterica subsp. enterica serovar Paratyphi B; assay: Antibacterial activity against Salmonella paratyphi B CICC 21495 incubated overnight by standard microtiter dilution method; assay type: functional
[5] = Antibacterial activity against Salmonella paratyphi C CICC 21512 incubated overnight by standard microtiter dilution method; assay type: functional, Salmonella enterica subsp. enterica serovar Paratyphi C; details: Salmonella enterica
[6] = Antibacterial activity against Salmonella enterica subsp. enterica serovar Choleraesuis ATCC 13312 incubated overnight by standard microtiter dilution method; assay type: functional
[7] = Antibacterial activity against Salmonella enterica subsp. enterica serovar Choleraesuis CICC 21493 incubated overnight by standard microtiter dilution method; assay type: functional
Salmonella enteritidis = assay: Antibacterial activity against Salmonella enteritidis CICC 21527 incubated overnight by standard microtiter dilution method; assay type: functional, Salmonella enterica subsp. enterica serovar Enteritidis; details: Salmonella enterica
[8] = Antibacterial activity against Salmonella wandsworth CICC 21504 incubated overnight by standard microtiter dilution method; assay type: functional, Salmonella enterica subsp. enterica serovar Wandsworth; details: Salmonella enterica
Salmonella typhimurium [9] = assay: Antibacterial activity against Salmonella typhimurium CICC 21483 incubated overnight by standard microtiter dilution method; assay type: functional, Salmonella enterica subsp. enterica serovar Typhimurium; details: Salmonella enterica
Salmonella typhimurium [10] = assay: Antibacterial activity against Salmonella typhimurium CICC 21913 incubated overnight by standard microtiter dilution method; assay type: functional, Salmonella enterica subsp. enterica serovar Typhimurium; details: Salmonella enterica
[11] = Antibacterial activity against Salmonella blockley CICC 21489 incubated overnight by standard microtiter dilution method; assay type: functional, Salmonella enterica subsp. enterica serovar Blockley; details: Salmonella enterica
[12] = Antibacterial activity against Salmonella dublin CICC 21497 incubated overnight by standard microtiter dilution method; assay type: functional, Salmonella enterica subsp. enterica serovar Dublin; details: Salmonella enterica
Salmonella typhimurium [13] = assay: Antibacterial activity against Salmonella typhimurium DT104 ATCC 700408 incubated overnight by standard microtiter dilution method; assay type: functional, Salmonella enterica subsp. enterica serovar Typhimurium; details: Salmonella enterica
Candida albicans = assay: Antifungal activity against Candida albicans ATCC 10231 incubated overnight by standard microtiter dilution method; assay type: functional
Erythrocyte = assay: Hemolytic activity in human Red blood cells assessed as hemolysis incubated for 1 hrs by absorbance based microplate reader analysis; assay type: toxicity, cell-based
Salmonella typhimurium [14] = assay: Antibacterial activity against Salmonella typhimurium DT104 in the presence of NaCl by MH broth based assay; assay type: functional, Salmonella enterica subsp. enterica serovar Typhimurium; details: Salmonella enterica
Salmonella typhimurium [15] = assay: Antibacterial activity against Salmonella typhimurium DT104 in the presence of KCl by MH broth based assay; assay type: functional, Salmonella enterica subsp. enterica serovar Typhimurium; details: Salmonella enterica
Salmonella typhimurium [16] = assay: Antibacterial activity against Salmonella typhimurium DT104 in the presence of NH4Cl by MH broth based assay; assay type: functional, Salmonella enterica subsp. enterica serovar Typhimurium; details: Salmonella enterica
Salmonella typhimurium [17] = assay: Antibacterial activity against Salmonella typhimurium DT104 in the presence of CaCl2 by MH broth based assay; assay type: functional, Salmonella enterica subsp. enterica serovar Typhimurium; details: Salmonella enterica
Salmonella typhimurium [18] = assay: Antibacterial activity against Salmonella typhimurium DT104 in the presence of MgCl2 by MH broth based assay; assay type: functional, Salmonella enterica subsp. enterica serovar Typhimurium; details: Salmonella enterica
Salmonella typhimurium [19] = assay: Antibacterial activity against Salmonella typhimurium DT104 in the presence of FeCl3 by MH broth based assay; assay type: functional, Salmonella enterica subsp. enterica serovar Typhimurium; details: Salmonella enterica
Salmonella typhimurium [20] = assay: Antibacterial activity against Salmonella typhimurium DT104 in the presence 25% inactivated mouse serum by MH broth based assay; assay type: functional, Salmonella enterica subsp. enterica serovar Typhimurium; details: Salmonella enterica
Salmonella typhimurium [21] = assay: Antibacterial activity against Salmonella typhimurium DT104 in the presence 50% inactivated mouse serum by MH broth based assay; assay type: functional, Salmonella enterica subsp. enterica serovar Typhimurium; details: Salmonella enterica
[22] = Hemolytic activity in human Red blood cells assessed as hemolysis at 128 ug/ml incubated for 1 hrs by absorbance based microplate reader analysis relative to control; assay type: toxicity, cell-based, Erythrocyte; details: red blood cells (erythrocytes), at 128 µg/mL, read-out: Activity
[23] = Cytotoxicity against mouse RAW264.7 cells assessed as cell viability at 128 ug/ml incubated for 24 hrs by MTT assay; assay type: toxicity, cell-based; details: at 128 µg/mL, read-out: Activity
Salmonella typhimurium [24] = assay: Antibacterial activity against multi-drug resistant Salmonella typhimurium DT104 assessed as inhibition of bacterial growth at 0.5 to 2 times of MIC by MH agar based serial dilution method; assay type: functional, organism-based; details: Salmonella enterica subsp. enterica serovar Typhimurium, time <= 120.0 min, TDE = time-dependent effect
Salmonella typhimurium [25] = assay: Antibacterial activity against multi-drug resistant Salmonella typhimurium DT104 assessed as inhibition of bacterial growth measured upto 120 mins by MH agar based serial dilution method; assay type: functional, organism-based; details: Salmonella enterica subsp. enterica serovar Typhimurium
Lipopolysaccharide (LPS) = assay: Displacement of BODIPY-TR-cadaverine from Salmonella typhimurium LPS assessed as increase in fluorescence intensity by fluorescence spectrophotometric analysis; details: Salmonella enterica subsp. enterica serovar Typhimurium; dose 0.25-8 µg/ml
RAW264.7 [26] = assay: Inhibition of LPS-stimulated NO production in mouse RAW264.7 cells incubated for 24 hrs by Griess reagent based analysis; assay type: functional, cell-based; details: dose 1-128 µg/ml
RAW264.7 [27] = assay: Inhibition of LPS-stimulated TNF-alpha production in mouse RAW264.7 cells at 1 to 128 ug/ml incubated for 24 hrs by ELISA analysis; assay type: functional, cell-based; details: dose 1-128 µg/ml
RAW264.7 [28] = assay: Inhibition of LPS-stimulated IL-1beta production in mouse RAW264.7 cells at 1 to 128 ug/ml incubated for 24 hrs by ELISA analysis; assay type: functional, cell-based; details: dose 1-128 µg/ml
RAW264.7 [29] = assay: Inhibition of LPS-stimulated IL-8 production in mouse RAW264.7 cells at 1 to 128 ug/ml incubated for 24 hrs by ELISA analysis; assay type: functional, cell-based; details: dose 1-128 µg/ml
Cell membrane = assay: Disruption of membrane integrity in Salmonella typhimurium DT104 assessed as increase in fluorescence intensity at 0.5 to 2 times of MIC incubated for 15 mins by PI staining based flow cytometric analysis; assay type: subcellular; details: Salmonella enterica subsp. enterica serovar Typhimurium
Salmonella typhimurium [30] = assay: Antibacterial activity against Salmonella typhimurium DT104 infected in mouse RAW264.7 cells assessed as reduction in bacterial cells at 1 times of MIC measured for 180 mins by MH agar based serial dilution method; assay type: functional, organism-based; details: Salmonella enterica subsp. enterica serovar Typhimurium

| Structure (SMILES) | MIC (Staphylococcus aureus [1]) | MIC (Staphylococcus aureus [2]) | MIC [3] | MIC (Enterococcus faecalis) | MIC (Escherichia coli) | MIC (Salmonella paratyphi) | MIC [4] | MIC [5] | MIC [6] | MIC [7] | MIC (Salmonella enteritidis) | MIC [8] | MIC (Salmonella typhimurium [9]) | MIC (Salmonella typhimurium [10]) | MIC [11] | MIC [12] | MIC (Salmonella typhimurium [13]) | MIC (Candida albicans) | other results |
| --- | --- | --- | --- | --- | --- | --- | --- | --- | --- | --- | --- | --- | --- | --- | --- | --- | --- | --- | --- |
| C[C@@H](O)[C@H](NC(=O)[C@H](CS)NC(=O)[C@H](CCCCN)NC(=O)[C@H](Cc1c[nH]c2ccccc12)NC(=O)[C@H](CCCCN)NC(=O)[C@H](Cc1c[nH]c2ccccc12)NC(=O)[C@H](CCCCN)NC(=O)[C@@H](N)Cc1c[nH]c2ccccc12)C(=O)N[C@@H](CCCCN)C(=O)N[C@@H](CO)C(=O)NCC(=O)N[C@@H](CS)C(=O)N[C@@H](CCCCN)C(=O)N[C@@H](Cc1c[nH]c2ccccc12)C(=O)N[C@@H](CCCCN)C(=O)N[C@@H](Cc1c[nH]c2ccccc12)C(=O)N[C@@H](CCCCN)C(=O)N[C@@H](Cc1c[nH]c2ccccc12)C(N)=O (H-WKWKWKCTKSGCKWKWKW-NH2) | 4 µg/mL (≈ 1.61 µM) | 4 µg/mL (≈ 1.61 µM) | 4 µg/mL (≈ 1.61 µM) | 2 µg/mL (≈ 0.805 µM) | 4 µg/mL (≈ 1.61 µM) | 4 µg/mL (≈ 1.61 µM) | 1 µg/mL (≈ 0.403 µM) | 4 µg/mL (≈ 1.61 µM) | 0.5 µg/mL (≈ 0.201 µM) | 16 µg/mL (≈ 6.44 µM) | 16 µg/mL (≈ 6.44 µM) | 4 µg/mL (≈ 1.61 µM) | 32 µg/mL (≈ 12.9 µM) | 4 µg/mL (≈ 1.61 µM) | > 128 µg/mL | 8 µg/mL (≈ 3.22 µM) | 32 µg/mL (≈ 12.9 µM) | 32 µg/mL (≈ 12.9 µM) | MHC (Erythrocyte): 32 µg/mL; MIC (Salmonella typhimurium [14]): > 128 µg/mL; MIC (Salmonella typhimurium [15]): > 128 µg/mL; MIC (Salmonella typhimurium [16]): > 128 µg/mL; MIC (Salmonella typhimurium [17]): > 128 µg/mL; MIC (Salmonella typhimurium [18]): > 128 µg/mL; MIC (Salmonella typhimurium [19]): > 128 µg/mL; MIC (Salmonella typhimurium [20]): 64 µg/mL (≈ 25.8 µM); MIC (Salmonella typhimurium [21]): 128 µg/mL (≈ 51.5 µM); hemolysis at 1 h, 128 ug/ml [22]: 30.8%; viability at 24 h, 128 ug/ml [23]: 36.6%; Activity (Salmonella typhimurium [24]): Tde; Activity (Salmonella typhimurium [25]): Dose-Dependent Effect; Activity (Lipopolysaccharide (LPS)): Dose-Dependent Effect; inhibition (RAW264.7 [26]): Dose-Dependent Effect; inhibition (RAW264.7 [27]): Active; inhibition (RAW264.7 [28]): Active; inhibition (RAW264.7 [29]): Active; Activity (Cell membrane): Active |
| CN[C@@H]1[C@H](O[C@H]2[C@H](O[C@H]3[C@H](O)[C@@H](O)[C@H](N=C(N)N)[C@@H](O)[C@@H]3N=C(N)N)O[C@@H](C)[C@]2(O)C=O)O[C@@H](CO)[C@H](O)[C@H]1O [STREPTOMYCIN] | 4 µg/mL (≈ 6.88 µM) | 8 µg/mL (≈ 13.8 µM) | 0.25 µg/mL (≈ 0.43 µM) | 64 µg/mL (≈ 110 µM) | 64 µg/mL (≈ 110 µM) | 32 µg/mL (≈ 55 µM) | 32 µg/mL (≈ 55 µM) | 64 µg/mL (≈ 110 µM) | 64 µg/mL (≈ 110 µM) | 32 µg/mL (≈ 55 µM) | 16 µg/mL (≈ 27.5 µM) | 2 µg/mL (≈ 3.44 µM) | 32 µg/mL (≈ 55 µM) | 64 µg/mL (≈ 110 µM) | > 128 µg/mL | 128 µg/mL (≈ 220 µM) | 128 µg/mL (≈ 220 µM) | 128 µg/mL (≈ 220 µM) | Activity (Salmonella typhimurium [30]): Active |
